The test system of this experiment is T. cruzi Tulahuen amastigotes in L-6 cells, CPRG absorbance. The experiment can be described thus: T. cruzi amastigote growth inhibition, dose response, Tulahuen strain, L-6 host cells, dry powder (AID 651890).

Take `C[C@@H]1CN([C@@H](C)CO)C(=O)c2cccc(NC(=O)c3ccncc3)c2O[C@H]1CN(C)Cc1ccc(Oc2ccccc2)cc1`: the IC50 was 39 nM.

The IC50 is the concentration at which inhibition is half-maximal.
